Results reported in patent publication US12404295B2, “(Hetero)aryl-methyl-thio-beta-D-galactopyranoside derivatives” (Idorsia Pharmaceuticals Ltd, priority 2019, dated 2025).
Read-outs that look alike come from different tables or passages of the source.

Experiments:
human Gal-3 (hGal-3) = human Gal-3 (hGal-3) (Homo sapiens (Human), UniProt P17931); assay: competitive binding assay: biotinylated hGal-3 binding to microplate-adsorbed asialofetuin (ASF)
Procedure, shortened: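 Peroxidase activity developed with ABTS measures the biotinylated hGal-3 remaining on the asialofetuin-coated surface after competition with test compounds. Incubation ran 3 h at 4 °C, followed by 1 h with streptavidin-peroxidase at 80 ng/mL.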

human Gal-1 (hGal-1) = human Gal-1 (hGal-1) (Homo sapiens (Human), UniProt P09382); assay: competitive binding assay: biotinylated hGal-1 binding to microplate-adsorbed asialofetuin (ASF); details: Table 15; read-out: IC50 (Galectin-1 inhibition)
Procedure, shortened: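 Biotinylated human Gal-1 (300-1000 ng/mL) competes with serially diluted compound for binding to ASF-coated plates, 3 h at 4° C. Bound protein detected with streptavidin-peroxidase and ABTS substrate (spectrophotometric). IC50 given as mean of several measurements.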

[1] = Table 5, read-out: IC50 (Gal-3 inhibition)
[2] = Gal-3 inhibition, binding of biotinylated hGal-3 to ASF, mean values, read-out: IC50

Chain of human Gal-3 (hGal-3) (P17931 whole entry): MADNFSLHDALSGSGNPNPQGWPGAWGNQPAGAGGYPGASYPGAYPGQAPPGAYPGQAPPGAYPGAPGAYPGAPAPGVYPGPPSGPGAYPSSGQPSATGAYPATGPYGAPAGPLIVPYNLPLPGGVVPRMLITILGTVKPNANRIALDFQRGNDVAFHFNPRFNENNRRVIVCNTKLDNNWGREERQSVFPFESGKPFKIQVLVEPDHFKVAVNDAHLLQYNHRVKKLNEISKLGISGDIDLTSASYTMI
Chain of human Gal-1 (hGal-1) (P09382 whole entry): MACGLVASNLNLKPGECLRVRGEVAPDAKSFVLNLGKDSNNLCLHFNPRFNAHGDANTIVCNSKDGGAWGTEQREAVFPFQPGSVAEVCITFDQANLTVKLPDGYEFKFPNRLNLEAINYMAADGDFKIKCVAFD

Row | IC50 (human Gal-3 (hGal-3); [1]) [nM] | IC50 (human Gal-1 (hGal-1)) [nM] | IC50 (human Gal-3 (hGal-3); [2]) [nM] | Structure (SMILES)
1 | 3000 | 21800 |  | OC[C@H]1O[C@@H](S[C@@H](c2ncccc2C(F)(F)F)C2(O)CCCCC2)[C@H](O)[C@@H](n2cc(-c3cc(F)c(F)c(F)c3)nn2)[C@H]1O [Example 2.39.125S., (2S,3R,4S,5R,6R)-2-(((S)-(1-Hydroxycyclohexyl)(3-(trifluoromethyl)pyridin-2-yl)methyl)thio)-6-(hydroxymethyl)-4-(4-(3,4,5-trifluorophenyl)-1H-1,2,3-triazol-1-yl)tetrahydro-2H-pyran-3,5-diol]
2 | 210 | 1110 |  | Cc1noc(C2CC2)c1C(S[C@@H]1O[C@H](CO)[C@H](O)[C@H](n2cc(-c3cc(F)c(F)c(F)c3)nn2)[C@H]1O)C1(O)CCCCC1 (stereo partly drawn) [Example 2.39.128., (2S,3R,4S,5R,6R)-2-(((5-Cyclopropyl-3-methylisoxazol-4-yl)(1-hydroxycyclohexyl)methyl)thio)-6-(hydroxymethyl)-4-(4-(3,4,5-trifluorophenyl)-1H-1,2,3-triazol-1-yl)tetrahydro-2H-pyran-3,5-diol]
3 | 190 | 1030 |  | Cc1noc(C2CC2)c1[C@@H](S[C@@H]1O[C@H](CO)[C@H](O)[C@H](n2cc(-c3cc(F)c(F)c(F)c3)nn2)[C@H]1O)C1(O)CCCCC1 [Example 2.39.128R., (2S,3R,4S,5R,6R)-2-(((R)-(5-Cyclopropyl-3-methylisoxazol-4-yl)(1-hydroxycyclohexyl)methyl)thio)-6-(hydroxymethyl)-4-(4-(3,4,5-trifluorophenyl)-1H-1,2,3-triazol-1-yl)tetrahydro-2H-pyran-3,5-diol]
4 | 3210 | 23200 |  | Cc1noc(C2CC2)c1[C@H](S[C@@H]1O[C@H](CO)[C@H](O)[C@H](n2cc(-c3cc(F)c(F)c(F)c3)nn2)[C@H]1O)C1(O)CCCCC1 [Example 2.39.128S., (2S,3R,4S,5R,6R)-2-(((S)-(5-Cyclopropyl-3-methylisoxazol-4-yl)(1-hydroxycyclohexyl)methyl)thio)-6-(hydroxymethyl)-4-(4-(3,4,5-trifluorophenyl)-1H-1,2,3-triazol-1-yl)tetrahydro-2H-pyran-3,5-diol]
5 | 90 | 730 |  | Cc1ccccc1C(S[C@@H]1O[C@H](CO)[C@H](O)[C@H](n2cc(-c3cc(F)c(F)c(F)c3)nn2)[C@H]1O)C1(O)CCN(C)CC1 (stereo partly drawn) [Example 2.40.102., (2S,3R,4S,5R,6R)-2-(((4-Hydroxy-1-methylpiperidin-4-yl)(o-tolyl)methyl)thio)-6-(hydroxymethyl)-4-(4-(3,4,5-trifluorophenyl)-1H-1,2,3-triazol-1-yl)tetrahydro-2H-pyran-3,5-diol]
6 | 130 | 420 |  | CN1CCC(O)(C(S[C@@H]2O[C@H](CO)[C@H](O)[C@H](n3cc(-c4cc(F)c(F)c(F)c4)nn3)[C@H]2O)c2ccccc2C(F)(F)F)CC1 (stereo partly drawn) [Example 2.40.112., (2S,3R,4S,5R,6R)-2-(((4-Hydroxy-1-methylpiperidin-4-yl)(2-(trifluoromethyl)phenyl)methyl)thio)-6-(hydroxymethyl)-4-(4-(3,4,5-trifluorophenyl)-1H-1,2,3-triazol-1-yl)tetrahydro-2H-pyran-3,5-diol]
7 | 60 | 150 |  | CN1CCC(O)([C@H](S[C@@H]2O[C@H](CO)[C@H](O)[C@H](n3cc(-c4cc(F)c(F)c(F)c4)nn3)[C@H]2O)c2ccccc2C(F)(F)F)CC1 [Example 2.40.112R., (2S,3R,4S,5R,6R)-2-(((R)-(4-Hydroxy-1-methylpiperidin-4-yl)(2-(trifluoromethyl)phenyl)methyl)thio)-6-(hydroxymethyl)-4-(4-(3,4,5-trifluorophenyl)-1H-1,2,3-triazol-1-yl)tetrahydro-2H-pyran-3,5-diol]
8 | 3950 | 21700 |  | CN1CCC(O)([C@@H](S[C@@H]2O[C@H](CO)[C@H](O)[C@H](n3cc(-c4cc(F)c(F)c(F)c4)nn3)[C@H]2O)c2ccccc2C(F)(F)F)CC1 [Example 2.40.112S., (2S,3R,4S,5R,6R)-2-(((S)-(4-Hydroxy-1-methylpiperidin-4-yl)(2-(trifluoromethyl)phenyl)methyl)thio)-6-(hydroxymethyl)-4-(4-(3,4,5-trifluorophenyl)-1H-1,2,3-triazol-1-yl)tetrahydro-2H-pyran-3,5-diol]
9 |  | 270 | 100 | Cc1nc(C)c(C(S[C@@H]2O[C@H](CO)[C@H](O)[C@H](n3cc(-c4cc(F)c(F)c(F)c4)nn3)[C@H]2O)C2(O)CCN(C)CC2)nc1C (stereo partly drawn) [Example 2.40.119., (2S,3R,4S,5R,6R)-2-(((4-Hydroxy-1-methylpiperidin-4-yl)(3,5,6-trimethylpyrazin-2-yl)methyl)thio)-6-(hydroxymethyl)-4-(4-(3,4,5-trifluorophenyl)-1H-1,2,3-triazol-1-yl)tetrahydro-2H-pyran-3,5-diol]
10 |  | 110 | 50 | Cc1nc(C)c([C@@H](S[C@@H]2O[C@H](CO)[C@H](O)[C@H](n3cc(-c4cc(F)c(F)c(F)c4)nn3)[C@H]2O)C2(O)CCN(C)CC2)nc1C [Example 2.40.119R., (2S,3R,4S,5R,6R)-2-(((R)-(4-Hydroxy-1-methylpiperidin-4-yl)(3,5,6-trimethylpyrazin-2-yl)methyl)thio)-6-(hydroxymethyl)-4-(4-(3,4,5-trifluorophenyl)-1H-1,2,3-triazol-1-yl)tetrahydro-2H-pyran-3,5-diol]
11 |  | 10800 | 3040 | Cc1nc(C)c([C@H](S[C@@H]2O[C@H](CO)[C@H](O)[C@H](n3cc(-c4cc(F)c(F)c(F)c4)nn3)[C@H]2O)C2(O)CCN(C)CC2)nc1C [Example 2.40.119S., (2S,3R,4S,5R,6R)-2-(((S)-(4-Hydroxy-1-methylpiperidin-4-yl)(3,5,6-trimethylpyrazin-2-yl)methyl)thio)-6-(hydroxymethyl)-4-(4-(3,4,5-trifluorophenyl)-1H-1,2,3-triazol-1-yl)tetrahydro-2H-pyran-3,5-diol]
12 | 200 | 530 |  | CN1CCC(O)(C(S[C@@H]2O[C@H](CO)[C@H](O)[C@H](n3cc(-c4cc(F)c(F)c(F)c4)nn3)[C@H]2O)c2ncccc2C(F)(F)F)CC1 (stereo partly drawn) [Example 2.40.125., (2S,3R,4S,5R,6R)-2-(((4-Hydroxy-1-methylpiperidin-4-yl)(3-(trifluoromethyl)pyridin-2-yl)methyl)thio)-6-(hydroxymethyl)-4-(4-(3,4,5-trifluorophenyl)-1H-1,2,3-triazol-1-yl)tetrahydro-2H-pyran-3,5-diol]
13 | 20 | 40 |  | CN1CCC(O)([C@H](S[C@@H]2O[C@H](CO)[C@H](O)[C@H](n3cc(-c4cc(F)c(F)c(F)c4)nn3)[C@H]2O)c2ncccc2C(F)(F)F)CC1 [Example 2.40.125R., (2S,3R,4S,5R,6R)-2-(((R)-(4-Hydroxy-1-methylpiperidin-4-yl)(3-(trifluoromethyl)pyridin-2-yl)methyl)thio)-6-(hydroxymethyl)-4-(4-(3,4,5-trifluorophenyl)-1H-1,2,3-triazol-1-yl)tetrahydro-2H-pyran-3,5-diol]
14 | 3650 | 11200 |  | CN1CCC(O)([C@@H](S[C@@H]2O[C@H](CO)[C@H](O)[C@H](n3cc(-c4cc(F)c(F)c(F)c4)nn3)[C@H]2O)c2ncccc2C(F)(F)F)CC1 [Example 2.40.125S., (2S,3R,4S,5R,6R)-2-(((S)-(4-Hydroxy-1-methylpiperidin-4-yl)(3-(trifluoromethyl)pyridin-2-yl)methyl)thio)-6-(hydroxymethyl)-4-(4-(3,4,5-trifluorophenyl)-1H-1,2,3-triazol-1-yl)tetrahydro-2H-pyran-3,5-diol]
15 | 90 | 1610 |  | Cc1ccccc1C(S[C@@H]1O[C@H](CO)[C@H](O)[C@H](n2cc(-c3cc(F)c(F)c(F)c3)nn2)[C@H]1O)C1(O)CCOCC1 (stereo partly shown) [Example 2.41.102.]
16 | 40 | 210 |  | Cc1ccccc1[C@@H](S[C@@H]1O[C@H](CO)[C@H](O)[C@H](n2cc(-c3cc(F)c(F)c(F)c3)nn2)[C@H]1O)C1(O)CCOCC1 [Example 2.41.102R.]
17 | 7360 | 65400 |  | Cc1ccccc1[C@H](S[C@@H]1O[C@H](CO)[C@H](O)[C@H](n2cc(-c3cc(F)c(F)c(F)c3)nn2)[C@H]1O)C1(O)CCOCC1 [Example 2.41.102S.]
18 | 110 | 900 |  | OC[C@H]1O[C@@H](SC(c2ccccc2C(F)(F)F)C2(O)CCOCC2)[C@H](O)[C@@H](n2cc(-c3cc(F)c(F)c(F)c3)nn2)[C@H]1O (stereo partly drawn) [Example 2.41.112., (2R,3R,4S,5R,6S)-2-(Hydroxymethyl)-6-(((4-hydroxytetrahydro-2H-pyran-4-yl)(2-(trifluoromethyl)phenyl)methyl)thio)-4-(4-(3,4,5-trifluorophenyl)-1H-1,2,3-triazol-1-yl)tetrahydro-2H-pyran-3,5-diol]
19 | 80 | 900 |  | OC[C@H]1O[C@@H](S[C@H](c2ccccc2C(F)(F)F)C2(O)CCOCC2)[C@H](O)[C@@H](n2cc(-c3cc(F)c(F)c(F)c3)nn2)[C@H]1O [Example 2.41.112R., (2R,3R,4S,5R,6S)-2-(Hydroxymethyl)-6-(((R)-(4-hydroxytetrahydro-2H-pyran-4-yl)(2-(trifluoromethyl)phenyl)methyl)thio)-4-(4-(3,4,5-trifluorophenyl)-1H-1,2,3-triazol-1-yl)tetrahydro-2H-pyran-3,5-diol]
20 | 6000 | 59400 |  | OC[C@H]1O[C@@H](S[C@@H](c2ccccc2C(F)(F)F)C2(O)CCOCC2)[C@H](O)[C@@H](n2cc(-c3cc(F)c(F)c(F)c3)nn2)[C@H]1O [Example 2.41.112S., (2R,3R,4S,5R,6S)-2-(Hydroxymethyl)-6-(((S)-(4-hydroxytetrahydro-2H-pyran-4-yl)(2-(trifluoromethyl)phenyl)methyl)thio)-4-(4-(3,4,5-trifluorophenyl)-1H-1,2,3-triazol-1-yl)tetrahydro-2H-pyran-3,5-diol]
